The source of these data is paper PMC8508980, “Design, Synthesis and Anticancer Profile of New 4-(1H-benzo[d]imidazol-1-yl)pyrimidin-2-amine-Linked Sulfonamide Derivatives with V600EBRAF Inhibitory Effect” (International Journal of Molecular Sciences, 2021).

The structures appear in SMILES notation.

What all share (assay): NCI 60 cell line screen
Common to all, as to format: cell-based

In test [1] the test system is OVCAR-5. The conditions noted are these: Homo sapiens; OVCAR-5, Ovarian Cancer; read-out: Percent growth. Summed up: (§1)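 48 h continuous exposure, five doses, highest 10 µM; cells in RPMI 1640 + 5% FBS at 37 °C, 5% CO2. TCA fixation, sulforhodamine B staining, A515.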
Test [2] deals with SN12C. Particulars: Homo sapiens, Renal Cancer, read-out: Percent growth. In short, it runs like this: as §1
The test system of test [3] is SK-OV-3. Particulars: Homo sapiens; SK-OV-3, Ovarian Cancer; read-out: Percent growth. Summed up: as §1
Test [4] relates to A498. The conditions noted are these: Homo sapiens; A498, Renal Cancer; read-out: Percent growth. In short, it runs like this: as §1
Test [5] has as its system MALME-3M. The conditions noted are these: Homo sapiens, Melanoma, read-out: Percent growth. In short, it runs like this: as §1
Test [6] relates to MCF7. Particulars: Homo sapiens; MCF7, Breast Cancer; read-out: Percent growth. Summed up: as §1
Test [7] relates to SF-539. Particulars: Homo sapiens; SF-539, CNS-Cancer; read-out: Percent growth. In short, it runs like this: as §1
Test [8] deals with SW-620. The conditions noted are these: Homo sapiens; SW-620, Colon Cancer; read-out: Percent growth. Summed up: as §1
Test [9] concerns SK-MEL-2. Particulars: Homo sapiens; SK-MEL-2, Melanoma; read-out: Percent growth. Summed up: as §1
The test system of test [10] is ACHN. The conditions noted are these: Homo sapiens, Renal Cancer, read-out: Percent growth. In short, it runs like this:
as §1

In test [11] the test system is DU-145. The conditions noted are these: Homo sapiens; DU-145, Prostate Cancer; read-out: Percent growth. In short, it runs like this: as §1
Test [12] deals with TK-10. The conditions noted are these: Homo sapiens; TK-10, Renal Cancer; read-out: Percent growth. Summed up: as §1
Test [13] deals with MDA-MB-231/ATCC. The conditions noted are these: Homo sapiens, Breast Cancer, read-out: Percent growth. In short, it runs like this: as §1
The test system of test [14] is HS 578T. The conditions noted are these: Homo sapiens, Breast Cancer, read-out: Percent growth. Summed up: as §1
In test [15] the test system is HL-60(TB). The conditions noted are these: Homo sapiens, Leukemia, read-out: Percent growth. In short, it runs like this: (§2)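 Cells seeded, incubated 24 h, then a time-zero plate fixed with TCA. Drug added at five concentrations up to 10 µM for 48 h at 37 °C. Cells fixed with TCA (16% for suspension lines), stained with SRB, absorbance read at 515 nm.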
Test [16] relates to NCI-H322M. The conditions noted are these: Homo sapiens, Non-Small Cell Lung Cancer, read-out: Percent growth. In short, it runs like this:
as §1

Test [17] deals with IGROV1. The conditions noted are these: Homo sapiens, IGROV-1; IGROV1, Ovarian Cancer; read-out: Percent growth. In short, it runs like this: as §1
The subject of test [18] is BT-549. Particulars: Homo sapiens; BT-549, Breast Cancer; read-out: Percent growth. Summed up: as §1
Test [19] deals with SNB-19. The conditions noted are these: Homo sapiens; SNB-19, CNS-Cancer; read-out: Percent growth. In short, it runs like this:
as §1

Test [20] concerns SF-268. Particulars: Homo sapiens; SF-268, CNS-Cancer; read-out: Percent growth. In short, it runs like this:
as §1

The test system of test [21] is UACC-62. The conditions noted are these: Homo sapiens; UACC-62, Melanoma; read-out: Percent growth. Summed up: as §2
The subject of test [22] is HOP-62. The conditions noted are these: Homo sapiens; HOP-62, Non-Small Cell Lung Cancer; read-out: Percent growth. In short, it runs like this: as §2
The test system of test [23] is HCT-116. Particulars: Homo sapiens; HCT-116, Colon Cancer; read-out: Percent growth. In short, it runs like this:
as §1

In the case of `O=S(=O)(NCCCNc1nccc(-n2cnc3ccccc32)n1)c1ccc(Cl)cc1` [12j, N-(3-((4-(1H-benzo [d]imidazol-1-yl)pyrimidin-2-yl)amino)propyl)-4-chloro benzenesulfonamide], the activity at 10 µM in test [1] came out at 105%; in [2], 91.7%; in test [3], 117%; in test [4] it was 73%; in test [5], 103%; in test [6], 89%. Besides, the activity at 10 µM in test [7] was determined as 91.9%; in test [8] it was 110%; in test [9], 108%; in [10], 94.1%; in test [11] it was 100%; in [12], 104%. Besides, the activity at 10 µM in [13] was 89.4%; in test [14], 105%; in test [15], 108%; in [16], 104%; in [17], 114%; in test [18], 90.1%. In addition, the activity at 10 µM is 104% in [19]; 98.2% in [20]; 81.5% in test [21]; 101% in test [22]; 94.1% in test [23].

Turning to `O=S(=O)(NCCCNc1nccc(-n2cnc3ccccc32)n1)c1ccc(Br)cc1` [12k, N-(3-((4-(1H-benzo [d]imidazol-1-yl)pyrimidin-2-yl)amino)propyl)-4-bromo benzenesulfonamide], the activity at 10 µM in test [1] came to 97%; in [2] it was 89.2%; in test [3], 109%; in [4], 77.2%; in test [5] it was 104%; in test [6], 86.7%. Also, the activity at 10 µM was found to be 85.2% in test [7]; 106% in test [8]; 105% in test [9]; 90.4% in test [10]; 96.5% in test [11]; 97.8% in test [12]. Further, the activity at 10 µM is 83.6% in test [13]; 90% in test [14]; 99.8% in test [15]; 103% in test [16]; 101% in test [17]; 80.8% in test [18]. Also, the activity at 10 µM in test [19] was determined as 98.6%; in test [20], 91.2%; in [21], 77.3%; in test [22], 107%; in [23], 90.3%.

Take `O=S(=O)(NCCCNc1nccc(-n2cnc3ccccc32)n1)c1ccc(C(F)(F)F)cc1` [12l, N-(3-((4-(1H-benzo [d]imidazol-1-yl)pyrimidin-2-yl)amino)propyl)-4-(trifluoromethyl) benzenesulfonamide]: the activity at 10 µM in test [1] amounted to 87.2%; in [2], 80.5%; in test [3] it was 80.3%; in test [4] it was 55.3%; in [5] it was 94%; in [6], 65.5%. The activity at 10 µM stood at 74.5% in [7]; 99.5% in [8]; 91% in [9]; 79% in test [10]; 83.5% in test [11]; 81.5% in test [12]. Moreover, the activity at 10 µM in test [13] came to 68.7%; in [14] it was 58.6%; in test [15], 89%; in test [16] it was 89.9%; in test [17], 74.3%; in test [18], 62.9%. Also, the activity at 10 µM in test [19] amounted to 83.4%; in [20], 66.5%; in test [21] it was 64.1%; in [22], 77.3%; in test [23], 65.6%.

As to `COc1ccc(S(=O)(=O)NCCCNc2nccc(-n3cnc4ccccc43)n2)cc1` [12m, N-(3-((4-(1H-benzo [d]imidazol-1-yl)pyrimidin-2-yl)amino)propyl)-4-methoxy benzenesulfonamide], the activity at 10 µM came to 99.6% in test [1]; 92.4% in [2]; 96.2% in [3]; 81.9% in [4]; 107% in test [5]; 85.1% in test [6]. In addition, the activity at 10 µM was found to be 83.9% in test [7]; 104% in [8]; 103% in test [9]; 88.2% in test [10]; 100% in test [11]; 103% in test [12]. Moreover, the activity at 10 µM in [13] came out at 84.1%; in test [14] it was 84.8%; in test [15], 110%; in [16] it was 104%; in [17] it was 91.5%; in test [18] it was 92.9%. Further, the activity at 10 µM in test [19] stood at 100%; in [20] it was 91.6%; in [21], 76.3%; in test [22] it was 94.8%; in test [23] it was 89.9%.

With `O=S(=O)(NCCCNc1nccc(-n2cnc3ccccc32)n1)c1cccc2ccccc12` [12n, N-(3-((4-(1H-benzo [d]imidazol-1-yl)pyrimidin-2-yl)amino)propyl)naphthalene-1-sulfonamide], the activity at 10 µM came out at 96.3% in test [1]; 85.9% in test [2]; 92.5% in test [3]; 72.1% in test [4]; 98.4% in test [5]; 83.4% in test [6]. Moreover, the activity at 10 µM in test [7] stood at 87.9%; in test [8] it was 106%; in test [9], 97.8%; in [10], 87.1%; in test [11], 94.5%; in test [12] it was 95.7%. In addition, the activity at 10 µM was 83.1% in [13]; 78.3% in test [14]; 101% in [15]; 103% in [16]; 98.1% in [17]; 88.2% in test [18]. Also, the activity at 10 µM in [19] worked out at 94.2%; in test [20], 86.8%; in test [21], 62%; in test [22], 87.1%; in [23] it was 75.9%.
